From publication PMC11110727, “Exploiting thiol-functionalized benzosiloxaboroles for achieving diverse substitution patterns – synthesis, characterization and biological evaluation of promising antibacterial agents” (RSC Medicinal Chemistry, 2024)
≈ marks a conversion by molar mass, not a printed value.

What was measured:
E. faecalis ATCC 29212 = test: Antibacterial activity: MIC/MBC determination and disc-diffusion; type: cell-based; conditions: Enterococcus faecalis, ATCC29212, E. faecalis ATCC 29212; for MIC: read-out: MIC
How it was run: (§1)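 MIC and disc-diffusion testing used EUCAST and CLSI guidance, and bactericidal and fungicidal endpoints used CLSI methods. Before testing, yeasts were grown twice on Sabouraud dextrose agar and bacteria twice on TSA, 24–48 h at 30 °C. DMSO was the compound solvent, with linezolid (Gram-positive) and fluconazole (fungi) as references.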

E. faecium ATCC 6057 = test: as above; type: cell-based; conditions: Enterococcus faecium, ATCC6057, E. faecium ATCC 6057; for MIC: read-out: MIC
How it was run: as §1

[1] = test system: S. epidermidis ATCC 12228; test: as above; type: cell-based; conditions: Staphylococcus epidermidis, ATCC12228, S. epidermidis ATCC 12228; for MIC: read-out: MIC
How it was run: as §1

[2] = test system: Human normal lung fibroblasts MRC-5; test: MTT-based viability (cytotoxicity) assay; conditions: for IC50: Homo sapiens, MRC5, 48 h
Method: To evaluate the cytotoxic effect of the tested compounds, an MTT-based assay was performed. […] Moreover, based on available IC50 and MIC (for standard and clinical S. aureus MRSA strains) values, the selectivity index (SI) was calculated for several compounds as the IC50/MIC ratio (Table 5).[60]
MRC-5 pd30 human fibroblasts (ECACC) were cultured in MEME, Minimum Essential Medium Eagle (Merck), supplemented with 10% fetal bovine serum (Merck), 2 mM L-glutamine, antibiotics (100 U mL^−1 penicillin, 100 μg mL^−1 streptomycin, Merck) and 1% non-essential amino acids (Merck). Cells were grown in 75 cm^2 cell culture flasks (Sarstedt), in a humidified atmosphere of CO2/air (5/95%) at 37 °C. MTT-based viability assay was conducted as described previously.[26] Optical densities were measured at 570 nm using a BioTek microplate reader. All measurements were carried out in three replicates and the results expressed as a percent of viable cells versus control cells. […] The selectivity index (SI) was calculated as [drawing 30] , in accordance with previously described protocols.[60]

Structure (SMILES)	MIC (E. faecalis ATCC 29212) [µg/mL]	MIC (E. faecium ATCC 6057) [µg/mL]	MBC [1] [µg/mL]	MIC [1] [µg/mL]	viability of MRC-5 ([2]; 6.25 µg·mL−1, 48 h)	viability of MRC-5 ([2]; 12.5 µg·mL−1, 48 h)	viability of MRC-5 ([2]; 25 µg·mL−1, 48 h)	viability of MRC-5 ([2]; 50 µg·mL−1, 48 h)	viability of MRC-5 ([2]; 100 µg·mL−1, 48 h)	viability of MRC-5 ([2]; 200 µg·mL−1, 48 h)	viability of MRC-5 ([2]; 400 µg·mL−1, 48 h)	IC50 [2] [µg/mL]	MBC (E. faecalis ATCC 29212) [µg/mL]	MBC (E. faecium ATCC 6057) [µg/mL]
C[Si]1(C)OB(O)c2cc(F)c(SCCC(=O)Nc3cnccn3)c(F)c21 [Compound 10, 3-((5,7-Difluoro-3-hydroxy-1,1-dimethyl-1,3-dihydrobenzo[c][1,2,5]oxasilaborol-6-yl)thio)-N-(pyrazin-2-yl)propanamide]	200 (≈ 506 µM)	100 (≈ 253 µM)	400 (≈ 1010 µM)	50 (≈ 126 µM)	–	–	–	–	–	–	–	–	–	–
C[Si]1(C)OB(O)c2ccc(SC3CC(=O)N(c4ccc(F)cc4)C3=O)c(F)c21 (stereo not shown) [Compound 15, 3-((7-Fluoro-3-hydroxy-1,1-dimethyl-1,3-dihydrobenzo[c][1,2,5]oxasilaborol-6-yl)thio)-1-(4-fluorophenyl)pyrrolidine-2,5-dione]	12.5 (≈ 29.8 µM)	25 (≈ 59.6 µM)	–	12.5 (≈ 29.8 µM)	89.2±0.3 % of control ± SD	77.9±4.3 % of control ± SD	73.7±0.8 % of control ± SD	69.9±1.8 % of control ± SD	65.0±0.1 % of control ± SD	41.5±0.7 % of control ± SD	6.7±0.1 % of control ± SD	145 (≈ 346 µM)	–	–
C[Si]1(C)OB(O)c2cc(F)c(S(=O)(=O)Cl)c(F)c21 [Compound 26, 5,7-Difluoro-3-hydroxy-1,1-dimethyl-1,3-dihydrobenzo[c][1,2,5]oxasilaborole-6-sulfonyl chloride]	200	100	–	200	–	–	–	–	–	–	–	–	–	–
C[Si]1(C)OB(O)c2cc(F)c(S(N)(=O)=O)c(F)c21 [Compound 27, 5,7-Difluoro-3-hydroxy-1,1-dimethyl-1,3-dihydrobenzo[c][1,2,5]oxasilaborole-6-sulfonamide]	400 (≈ 1360 µM)	400 (≈ 1360 µM)	–	> 400	74.1±3.1 % of control ± SD	74.1±1.4 % of control ± SD	79.3±9.5 % of control ± SD	79.7±7.5 % of control ± SD	74.3±7.9 % of control ± SD	68.5±3.4 % of control ± SD	66.2±2.4 % of control ± SD	> 400	–	–
C[Si]1(C)OB(O)c2cc(F)c(SC3CC(=O)N(c4ccc(F)cc4)C3=O)c(F)c21 (stereo not shown) [Compound 14, 3-((5,7-Difluoro-3-hydroxy-1,1-dimethyl-1,3-dihydrobenzo[c][1,2,5]oxasilaborol-6-yl)thio)-1-(4-fluorophenyl)pyrrolidine-2,5-dione]	25 (≈ 57.2 µM)	50 (≈ 114 µM)	–	50 (≈ 114 µM)	90.4±7.6 % of control ± SD	88.8±5.4 % of control ± SD	87.5±3.5 % of control ± SD	80.3±7.5 % of control ± SD	52.0±2.8 % of control ± SD	27.3±3.2 % of control ± SD	0.1±0.1 % of control ± SD	133 (≈ 305 µM)	–	–
C[Si]1(C)OB(O)c2cc(F)c(SCCC(=O)N3CCOCC3)c(F)c21 [Compound 8, 3-((5,7-Difluoro-3-hydroxy-1,1-dimethyl-1,3-dihydrobenzo[c][1,2,5]oxasilaborol-6-yl)thio)-1-morpholinopropan-1-one]	400 (≈ 1030 µM)	200 (≈ 516 µM)	–	100 (≈ 258 µM)	–	–	–	–	–	–	–	–	–	–
C[Si]1(C)OB(O)c2ccc(SC3CC(=O)NC3=O)c(F)c21 (stereo not shown) [Compound 13, 3-((7-Fluoro-3-hydroxy-1,1-dimethyl-1,3-dihydrobenzo[c][1,2,5]oxasilaborol-6-yl)thio)pyrrolidine-2,5-dione]	25 (≈ 76.9 µM)	12.5 (≈ 38.4 µM)	–	25 (≈ 76.9 µM)	–	–	–	–	–	–	–	–	–	–
C[Si]1(C)OB(O)c2ccc(SCCS(=O)(=O)c3ccccc3)c(F)c21 [Compound 21, 7-Fluoro-1,1-dimethyl-6-((2-(phenylsulfonyl)ethyl)thio)benzo[c][1,2,5]oxasilaborol-3(1H)-ol]	200 (≈ 505 µM)	200 (≈ 505 µM)	–	25 (≈ 63.1 µM)	–	–	–	–	–	–	–	–	–	–
C[Si]1(C)OB(O)c2ccc(SC3CC(=O)N(c4ccc(Br)c(C(F)(F)F)c4)C3=O)c(F)c21 (stereo not shown) [Compound 17, 1-(4-Bromo-3-(trifluoromethyl)phenyl)-3-((7-fluoro-3-hydroxy-1,1-dimethyl-1,3-dihydrobenzo[c][1,2,5]oxasilaborol-6-yl)thio)pyrrolidine-2,5-dione]	12.5 (≈ 22.8 µM)	25 (≈ 45.6 µM)	100 (≈ 182 µM)	12.5 (≈ 22.8 µM)	99.9±4.6 % of control ± SD	96.1±2.3 % of control ± SD	87.6±0.2 % of control ± SD	89.2±8.5 % of control ± SD	71.2±1.3 % of control ± SD	29.5±0.3 % of control ± SD	0.0±0.0 % of control ± SD	140 (≈ 254 µM)	200 (≈ 365 µM)	–
C[Si]1(C)OB(O)c2cc(F)c(SCCC(N)=O)c(F)c21 [Compound 7, 3-((5,7-Difluoro-3-hydroxy-1,1-dimethyl-1,3-dihydrobenzo[c][1,2,5]oxasilaborol-6-yl)thio)propanamide]	400 (≈ 1260 µM)	200 (≈ 631 µM)	–	100 (≈ 315 µM)	–	–	–	–	–	–	–	–	–	–
C[Si]1(C)OB(O)c2ccc(SCCC(=O)OCCCCCC[n+]3ccccc3)c(F)c21 [Compound 19, 1-(6-((3-((7-Fluoro-3-hydroxy-1,1-dimethyl-1,3-dihydrobenzo[c][1,2,5]oxasilaborol-6-yl)thio)propanoyl)oxy)hexyl)pyridin-1-ium trifluoromethanesulfonate]	100	100	100	25	–	–	–	–	–	–	–	–	400	–
Cc1cc(NC(=O)CCSc2c(F)cc3c(c2F)[Si](C)(C)OB3O)no1 [Compound 11, 3-((5,7-Difluoro-3-hydroxy-1,1-dimethyl-1,3-dihydrobenzo[c][1,2,5]oxasilaborol-6-yl)thio)-N-(5-methylisoxazol-3-yl)propanamide]	200 (≈ 502 µM)	200 (≈ 502 µM)	400 (≈ 1000 µM)	25 (≈ 62.8 µM)	–	–	–	–	–	–	–	–	–	–
C[Si]1(C)OB(O)c2cc(F)c(S(=O)(=O)Nc3ccc(F)cc3)c(F)c21 [Compound 28, 5,7-Difluoro-N-(4-fluorophenyl)-3-hydroxy-1,1-dimethyl-1,3-dihydrobenzo[c][1,2,5]oxasilaborole-6-sulfonamide]	400 (≈ 1030 µM)	400 (≈ 1030 µM)	100 (≈ 258 µM)	50 (≈ 129 µM)	93.3±1.9 % of control ± SD	82.6±1.2 % of control ± SD	75.1±5.4 % of control ± SD	65.5±1.8 % of control ± SD	47.7±3.7 % of control ± SD	32.5±0.0 % of control ± SD	15.6±0.1 % of control ± SD	74.9 (≈ 193 µM)	–	–
C[Si]1(C)OB(O)c2cc(F)c(SCCC(=O)OCCCCCC[n+]3ccccc3)c(F)c21 [Compound 18, 1-(6-((3-((5,7-difluoro-3-hydroxy-1,1-dimethyl-1,3-dihydrobenzo[c][1,2,5]oxasilaborol-6-yl)thio)propanoyl)oxy)hexyl)pyridin-1-ium trifluoromethanesulfonate]	200	100	200	50	–	–	–	–	–	–	–	–	–	–
CC(=O)CCSc1c(F)cc2c(c1F)[Si](C)(C)OB2O [Compound 3, 4-((5,7-Difluoro-3-hydroxy-1,1-dimethyl-1,3-dihydrobenzo[c][1,2,5]oxasilaborol-6-yl)thio)butan-2-one]	25 (≈ 79.1 µM)	12.5 (≈ 39.5 µM)	200 (≈ 632 µM)	25 (≈ 79.1 µM)	–	–	–	–	–	–	–	–	200 (≈ 632 µM)	200 (≈ 632 µM)
C[Si]1(C)OB(O)c2cc(F)c(SCCC(=O)Nc3ncccn3)c(F)c21 [Compound 9, 3-((5,7-Difluoro-3-hydroxy-1,1-dimethyl-1,3-dihydrobenzo[c][1,2,5]oxasilaborol-6-yl)thio)-N-(pyrimidin-2-yl)propanamide]	200 (≈ 506 µM)	200 (≈ 506 µM)	400 (≈ 1010 µM)	50 (≈ 126 µM)	–	–	–	–	–	–	–	–	–	–
C[Si]1(C)OB(O)c2cc(F)c(SCCC(=O)ON3C(=O)CCC3=O)c(F)c21 [Compound 5, 2,5-Dioxopyrrolidin-1-yl 3-((5,7-difluoro-3-hydroxy-1,1-dimethyl-1,3-dihydrobenzo-[c][1,2,5]oxasilaborol-6-yl)thio)propanoate]	400 (≈ 963 µM)	400 (≈ 963 µM)	–	400 (≈ 963 µM)	–	–	–	–	–	–	–	–	–	–
